Reference: publication PMC5853648 (Biochemistry, 2017)

Assays:
[1] = target: T1, CidC (Staphylococcus aureus, UniProt Q6PST7); assay: tryptophan fluorescence quenching titration; assay type: binding
T1 sequence (Q6PST7 2-579): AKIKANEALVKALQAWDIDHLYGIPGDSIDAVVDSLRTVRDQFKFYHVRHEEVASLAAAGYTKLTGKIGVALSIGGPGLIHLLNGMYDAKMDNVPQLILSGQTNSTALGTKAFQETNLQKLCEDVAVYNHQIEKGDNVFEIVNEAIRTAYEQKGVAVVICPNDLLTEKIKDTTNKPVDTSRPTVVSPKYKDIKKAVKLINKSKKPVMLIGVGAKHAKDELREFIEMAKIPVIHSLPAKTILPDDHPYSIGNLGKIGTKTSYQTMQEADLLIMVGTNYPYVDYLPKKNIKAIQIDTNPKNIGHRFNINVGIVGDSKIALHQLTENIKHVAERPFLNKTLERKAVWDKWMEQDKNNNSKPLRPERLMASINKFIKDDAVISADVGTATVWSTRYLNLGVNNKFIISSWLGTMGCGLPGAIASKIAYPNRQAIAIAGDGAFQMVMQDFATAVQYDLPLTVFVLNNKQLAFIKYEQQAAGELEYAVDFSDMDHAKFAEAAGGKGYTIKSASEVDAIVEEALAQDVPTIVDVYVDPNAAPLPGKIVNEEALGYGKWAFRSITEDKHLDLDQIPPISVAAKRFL

[2] = target: T1, CidC; assay: ferricyanide reduction assay, absorbance […] nm; assay type: biochemical

| SMILES | Kd [1] [mM] | IC50 [2] [mM] |
| --- | --- | --- |
| Cc1ncc(C[n+]2csc(CCO[P@](=O)(O)OP(=O)(O)O)c2C)c(N)n1 [TPP] | 0.0003 |  |
| O=C(O)CC(O)(CC(=O)O)C(=O)O [citrate] |  | 10 |
